14 compounds from patent US20240025863A1, “SOS1 PROTEIN DEGRADERS, PHARMACEUTICAL COMPOSITIONS THEREOF, AND THEIR THERAPEUTIC APPLICATIONS” (BioTheryX, Inc., priority 2020, published 2024) can be followed below.

Holding throughout (type): cell-based
For one experiment, the system named is H23 cells. Briefly: Cell viability assay (CellTiter-Glo), H23 cells. Particulars: Homo sapiens, NCI-H23, 72 h; H23 cells, 3 days incubation, CellTiter-Glo luminescence; read-out: Inhibition of Cancerous Cells IC50 H23. The protocol: H358, H23, SW48, and AsPC-1 cells were cultured in RPMI 1640 media supplemented with 10% fetal bovine serum, streptomycin, and penicillin. Lovo and SW480 cells were cultured in DMEM media supplemented with 10% fetal bovine serum, streptomycin, and penicillin. The cell lines were plated in their respective medium supplemented with 2.5% fetal bovine serum, streptomycin, and penicillin. All cell lines were plated in white walled 96-well plates at 2,000 cells/well or 384-well plates at 500 cells/well, except Lovo, which were plated at 4,000 or 1,000 cells/well, respectively. The cells were incubated in DMSO (control) or a compound for 3 days at 37° C. under 5% CO2. A CELLTITER-GLO® reagent (100 μL) was then added to each well. After a 10 min incubation with shaking, luminescence was measured using an ENVISION® multimode plate reader.

The test system of a further experiment is H358 cells (G12C). Briefly: Cell viability assay (CellTiter-Glo), H358 cells. Particulars: Homo sapiens, NCI-H358, 72 h; H358 cells, 3 days incubation, CellTiter-Glo luminescence; read-out: Inhibition of Cancerous Cells IC50 H358 (G12C). An outline of the steps: (§1)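 Viability is measured by CellTiter-Glo luminescence following a 3-day compound incubation at 37 °C in medium with 2.5% FBS.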
A general note: In ATP-based viability assays light output follows the ATP content of the culture.

The subject of another experiment is Lovo cells (G13D). Briefly: Cell viability assay (CellTiter-Glo), Lovo cells. The following applies: Homo sapiens, 72 h; Lovo cells, 3 days incubation, CellTiter-Glo luminescence; read-out: Inhibition of Cancerous Cells IC50 Lovo (G13D). In outline: as §1
The next experiment deals with SW480 cells (G12V). Briefly: Cell viability assay (CellTiter-Glo), SW480 cells. Particulars: Homo sapiens, 72 h; SW480 cells, 3 days incubation, CellTiter-Glo luminescence; read-out: Inhibition of Cancerous Cells IC50 SW480 (G12V). An outline of the steps: as §1
In a further experiment the test system is SW48 cells (wt). Briefly: Cell viability assay (CellTiter-Glo), SW48 cells. The following applies: Homo sapiens, 72 h; SW48 cells, 3 days incubation, CellTiter-Glo luminescence; read-out: Inhibition of Cancerous Cells IC50 SW48 (wt). An outline of the steps:
as §1

Another experiment relates to AsPC-1 cells (G12D). Nature of the experiment: Cell viability assay (CellTiter-Glo), AsPC-1 cells. Particulars: Homo sapiens, ASPC1, 72 h, 3 days incubation, CellTiter-Glo luminescence, read-out: Inhibition of Cancerous Cells IC50 AsPC-1 (G12D). An outline of the steps: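 Cells were grown in medium with 2.5% FBS at 2,000 cells/well (96-well) or 500 cells/well (384-well); Lovo were plated at 4,000 or 1,000. Compound exposure lasted 3 days at 37° C., 5% CO2. Viability was measured as CellTiter-Glo luminescence.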

Consider `COc1cc2c(N[C@H](C)c3cccc(Br)c3)nc(C)nc2cc1OCCOCCOCCOCCNc1cccc2c1C(=O)N(C1CCC(=O)NC1=O)C2=O` (stereo partly drawn) [Compound A4, 4-((2-(2-(2-(2-((4-(((R)-1-(3-bromophenyl)ethyl)amino)-6-methoxy-2-methylquinazolin-7-yl)oxy)ethoxy)ethoxy)ethoxy)ethyl)amino)-2-(2,6-dioxopiperidin-3-yl)isoindoline-1,3-dione], for which the IC50 was 9 µM in the experiment with H23 cells and 7.2 µM with H358 cells (G12C).
In the same order, the values of `COc1cc2c(N[C@H](C)c3cccc(Br)c3)nc(C)nc2cc1OCCCCCCCCCN1CCC(c2cc(F)cc3c2CN(C2CCC(=O)NC2=O)C3=O)CC1` (stereo partly drawn) [Compound A12, 3-(4-(1-(9-((4-(((R)-1-(3-Bromophenyl)ethyl)amino)-6-methoxy-2-methyl-quinazolin-7-yl)oxy)nonyl)piperidin-4-yl)-6-fluoro-1-oxoisoindolin-2-yl)piperidine-2,6-dione] are 1.2 µM and 1.4 µM.
In the same order, the values of `COc1cc2c(N[C@H](C)c3cccc(Br)c3)nc(C)nc2cc1OC1CCN(CCCCN2CCC(c3cc(F)cc4c3CN(C3CCC(=O)NC3=O)C4=O)CC2)CC1` (stereo partly drawn) [Compound A18, 3-(4-(1-(4-(4-((4-(((R)-1-(3-Bromophenyl)ethyl)amino)-6-methoxy-2-methyl-quinazolin-7-yl)oxy)piperidin-1-yl)butyl)piperidin-4-yl)-6-fluoro-1-oxoisoindolin-2-yl)-piperidine-2,6-dione] are 2.6 µM and 3 µM.
Taken in the same sequence, the figures for `COc1cc2nc(C)nc(N[C@H](C)c3cccc(Br)c3)c2cc1OCCCCCCCN1CCC(c2cc(F)cc3c2CN(C2CCC(=O)NC2=O)C3=O)CC1` (stereo partly drawn) [Compound A19, 3-(4-(1-(7-((4-(((R)-1-(3-Bromophenyl)ethyl)amino)-7-methoxy-2-methyl-quinazolin-6-yl)oxy)heptyl)piperidin-4-yl)-6-fluoro-1-oxoisoindolin-2-yl)piperidine-2,6-dione] were 1.9 µM and 1.7 µM.
As for `COc1cc2c(N[C@H](C)c3cccc(Br)c3)nc(C)nc2cc1OCCCCCCCN1CCC(c2cc3c(cc2F)C(=O)N(C2CCC(=O)NC2=O)C3)CC1` (stereo partly drawn) [Compound A22, 3-(5-(1-(7-((4-(((R)-1-(3-bromophenyl)ethyl)amino)-6-methoxy-2-methylquinazolin-7-yl)oxy)heptyl)piperidin-4-yl)-6-fluoro-1-oxoisoindolin-2-yl)piperidine-2,6-dione], the IC50 was determined as 0.9 µM in the experiment with H23 cells and 0.79 µM in the experiment with H358 cells (G12C).
Taken in the same sequence, the figures for `COc1cc2c(N[C@H](C)c3cccc(Br)c3)nc(C)nc2cc1OCCOCCOCCNc1cccc2c1C(=O)N(C1CCC(=O)NC1=O)C2=O` (stereo partly drawn) [Compound A36, 4-((2-(2-(2-((4-(((R)-1-(3-Bromophenyl)ethyl)amino)-6-methoxy-2-methyl-quinazolin-7-yl)oxy)ethoxy)ethoxy)ethyl)amino)-2-(2,6-dioxopiperidin-3-yl)isoindoline-1,3-dione] were 8.3 µM and 8.8 µM.
Taken in the same sequence, the figures for `COc1cc2c(N[C@H](C)c3cccc(Br)c3)nc(C)nc2cc1OCCCCCCCNCc1ccc(OCc2scc3c2CN(C2CCC(=O)NC2=O)C3=O)cc1` (stereo partly drawn) [Compound A41, 3-(1-((4-(((7-((4-(((R)-1-(3-Bromophenyl)ethyl)amino)-6-methoxy-2-methyl-quinazolin-7-yl)oxy)heptyl)amino)methyl)phenoxy)methyl)-4-oxo-4H-thieno[3,4-c]pyrrol-5(6H)-yl)piperidine-2,6-dione] were 1.3 µM and 1.5 µM.
Regarding `CN[C@@H](C)C(=O)N[C@H](C(=O)N1C[C@@H](NC(=O)CCCCCCCCCCOc2cc3nc(C)nc(N[C@H](C)c4cccc(Br)c4)c3cc2OC)C[C@H]1C(=O)N[C@@H]1CCCc2ccccc21)C1CCCCC1` [Compound B11, (2S,4S)-4-(11-((4-(((R)-1-(3-Bromophenyl)ethyl)amino)-6-methoxy-2-methyl-quinazolin-7-yl)oxy)undecanamido)-1-((S)-2-cyclohexyl-2-((S)-2-(methylamino)propanamido)-acetyl)-N—((R)-1,2,3,4-tetrahydronaphthalen-1-yl)pyrrolidine-2-carboxamide], the IC50 in the experiment on Lovo cells (G13D) came to 0.39 µM; in the experiment on SW480 cells (G12V), 0.36 µM; with SW48 cells (wt), 0.53 µM; in the experiment with AsPC-1 cells (G12D), 0.96 µM; in the experiment on H358 cells (G12C), 0.53 µM.
On to `CN[C@@H](C)C(=O)N[C@H](C(=O)N1C[C@@H](NC(=O)CCCCCCCCOc2cc3nc(C)nc(N[C@H](C)c4cccc(Br)c4)c3cc2OC)C[C@H]1C(=O)N[C@@H]1CCCc2ccccc21)C1CCCCC1` [Compound B12, (2S,4S)-4-(9-((4-(((R)-1-(3-Bromophenyl)ethyl)amino)-6-methoxy-2-methyl-quinazolin-7-yl)oxy)nonanamido)-1-((S)-2-cyclohexyl-2-((S)-2-(methylamino)propanamido)-acetyl)-N—((R)-1,2,3,4-tetrahydronaphthalen-1-yl)pyrrolidine-2-carboxamide], for which the IC50 stood at 0.8 µM in the experiment on Lovo cells (G13D); 0.45 µM in the experiment with SW480 cells (G12V); 0.46 µM in the experiment with SW48 cells (wt); 2.7 µM in the experiment on AsPC-1 cells (G12D); 1.1 µM in the experiment on H358 cells (G12C).
Take `COc1cc2c(N[C@H](C)c3cccc(Br)c3)nc(C)nc2cc1OCCCCCCCCC(=O)N[C@H](C(=O)N1C[C@H](O)C[C@H]1C(=O)NCc1ccc(-c2scnc2C)cc1)C(C)(C)C` [Compound D2, (2S,4R)-1-((S)-2-(9-((4-(((R)-1-(3-bromophenyl)ethyl)amino)-6-methoxy-2-methylquinazolin-7-yl)oxy)nonanamido)-3,3-dimethylbutanoyl)-4-hydroxy-N-(4-(4-methylthiazol-5-yl)benzyl)pyrrolidine-2-carboxamide]: the values for the IC50 in the experiment on H23 cells and in the experiment with H358 cells (G12C) were 13 µM and 15 µM, respectively.
As to `COc1cc2c(N[C@@H](C)c3cccs3)nc(C)nc2cc1OCCCCCCCCC(=O)N[C@H](C(=O)N1C[C@H](O)C[C@H]1C(=O)NCc1ccc(-c2scnc2C)cc1)C(C)(C)C` [Compound D6, (2S,4R)-4-Hydroxy-1-((S)-2-(9-((6-methoxy-2-methyl-4-(((S)-1-(thiophen-2-yl)ethyl)amino)quinazolin-7-yl)oxy)nonanamido)-3,3-dimethylbutanoyl)-N-(4-(4-methylthiazol-5-yl)benzyl)pyrrolidine-2-carboxamide], the IC50 in the experiment on H23 cells was found to be 2.7 µM; in the experiment on H358 cells (G12C) it was 6.1 µM.
Taken in the same sequence, the figures for `CNCc1ccccc1-c1csc([C@@H](C)Nc2nc(C)nc3cc(OCCCCCCCCC(=O)N[C@H](C(=O)N4C[C@H](O)C[C@H]4C(=O)NCc4ccc(-c5scnc5C)cc4)C(C)(C)C)c(OC)cc23)c1` [Compound D9, (2S,4R)-4-hydroxy-1-((S)-2-(9-((6-methoxy-2-methyl-4-(((R)-1-(4-(2-((methylamino)methyl)phenyl)thiophen-2-yl)ethyl)amino)quinazolin-7-yl)oxy)nonanamido)-3,3-dimethylbutanoyl)-N-(4-(4-methylthiazol-5-yl)benzyl)pyrrolidine-2-carboxamide] were 1 µM and 0.97 µM.
In the case of `COc1cc2c(N[C@H](C)c3cccc(Br)c3)nc(C)nc2cc1OCCCCCCCOc1cc(-c2scnc2C)ccc1CNC(=O)[C@@H]1C[C@@H](O)CN1C(=O)[C@@H](NC(C)=O)C(C)(C)C` [Compound D11, (2S,4R)-1-((S)-2-Acetamido-3,3-dimethylbutanoyl)-N-(2-((7-((4-(((R)-1-(3-bromophenyl)ethyl)amino)-6-methoxy-2-methylquinazolin-7-yl)oxy)heptyl)oxy)-4-(4-methylthiazol-5-yl)benzyl)-4-hydroxypyrrolidine-2-carboxamide], the IC50 is 2.6 µM in the experiment with Lovo cells (G13D); 1.2 µM with SW480 cells (G12V); 5.9 µM in the experiment on SW48 cells (wt); above 10 µM in the experiment on AsPC-1 cells (G12D); 1.6 µM in the experiment on H358 cells (G12C).
For `COc1cc2c(N[C@H](C)c3cccc(Br)c3)nc(C)nc2cc1OCCCCCCCCCCCCCOc1cc(-c2scnc2C)ccc1CNC(=O)[C@@H]1C[C@@H](O)CN1C(=O)[C@@H](NC(C)=O)C(C)(C)C` [Compound D14, (2S,4R)-1-((S)-2-Acetamido-3,3-dimethylbutanoyl)-N-(2-((13-((4-(((R)-1-(3-bromophenyl)ethyl)amino)-6-methoxy-2-methylquinazolin-7-yl)oxy)tridecyl)oxy)-4-(4-methyl-thiazol-5-yl)benzyl)-4-hydroxypyrrolidine-2-carboxamide], the half-inhibitory concentration (IC50) was 0.64 µM in the experiment on Lovo cells (G13D); 3.3 µM in the experiment on SW480 cells (G12V); above 10 µM with SW48 cells (wt); above 10 µM in the experiment with AsPC-1 cells (G12D); above 10 µM with H358 cells (G12C).

The IC50 is the midpoint of a concentration-inhibition curve.
